Data reported in ChEMBL document CHEMBL5303765, “Data for DCP probe BAY-7081” (2023).

How the values were obtained:
[1] = target: Tyrosine-protein kinase Fes/Fps (Homo sapiens) (UniProt P07332); assay: FES SGC Tm panel (DSF); conditions: for ΔTm: Compound concentration 10.0 uM
[2] = target: T1, Transcription intermediary factor 1-alpha (Homo sapiens) (UniProt O15164); assay: TIF1 SGC Tm panel (DSF); conditions: for ΔTm: Compound concentration 10.0 uM
T1 sequence (whole entry): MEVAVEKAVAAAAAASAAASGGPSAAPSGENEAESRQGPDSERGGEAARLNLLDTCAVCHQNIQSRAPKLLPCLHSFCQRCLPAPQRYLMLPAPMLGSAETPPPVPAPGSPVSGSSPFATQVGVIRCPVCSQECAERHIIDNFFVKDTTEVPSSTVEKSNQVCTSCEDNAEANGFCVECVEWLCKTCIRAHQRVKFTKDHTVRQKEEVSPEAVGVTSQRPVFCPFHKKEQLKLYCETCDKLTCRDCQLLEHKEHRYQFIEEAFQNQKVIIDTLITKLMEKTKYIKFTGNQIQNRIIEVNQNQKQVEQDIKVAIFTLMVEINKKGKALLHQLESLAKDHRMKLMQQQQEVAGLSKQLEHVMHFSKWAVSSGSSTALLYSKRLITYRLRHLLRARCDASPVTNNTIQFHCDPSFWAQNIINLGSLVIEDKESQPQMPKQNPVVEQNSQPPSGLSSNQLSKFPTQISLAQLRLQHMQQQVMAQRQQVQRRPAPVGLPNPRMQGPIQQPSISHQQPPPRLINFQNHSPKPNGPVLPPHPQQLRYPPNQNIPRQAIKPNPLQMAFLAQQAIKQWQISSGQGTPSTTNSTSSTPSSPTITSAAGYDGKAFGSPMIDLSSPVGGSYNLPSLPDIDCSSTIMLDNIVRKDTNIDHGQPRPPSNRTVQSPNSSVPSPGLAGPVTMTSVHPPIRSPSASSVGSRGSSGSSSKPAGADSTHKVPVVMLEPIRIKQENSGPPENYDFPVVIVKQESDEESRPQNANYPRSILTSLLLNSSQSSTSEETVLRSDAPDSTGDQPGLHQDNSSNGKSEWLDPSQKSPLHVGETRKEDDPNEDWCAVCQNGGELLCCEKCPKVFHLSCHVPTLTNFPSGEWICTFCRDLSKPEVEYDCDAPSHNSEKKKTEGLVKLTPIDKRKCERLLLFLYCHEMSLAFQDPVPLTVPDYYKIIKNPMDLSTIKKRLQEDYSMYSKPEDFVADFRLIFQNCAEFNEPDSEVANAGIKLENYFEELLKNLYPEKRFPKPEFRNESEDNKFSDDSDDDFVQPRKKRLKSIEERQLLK

[3] = target: T2, Serine/threonine-protein kinase PLK4 (Homo sapiens) (UniProt O00444); assay: PLK4 SGC Tm panel (DSF); conditions: for ΔTm: Compound concentration 10.0 uM
T2 sequence (whole entry): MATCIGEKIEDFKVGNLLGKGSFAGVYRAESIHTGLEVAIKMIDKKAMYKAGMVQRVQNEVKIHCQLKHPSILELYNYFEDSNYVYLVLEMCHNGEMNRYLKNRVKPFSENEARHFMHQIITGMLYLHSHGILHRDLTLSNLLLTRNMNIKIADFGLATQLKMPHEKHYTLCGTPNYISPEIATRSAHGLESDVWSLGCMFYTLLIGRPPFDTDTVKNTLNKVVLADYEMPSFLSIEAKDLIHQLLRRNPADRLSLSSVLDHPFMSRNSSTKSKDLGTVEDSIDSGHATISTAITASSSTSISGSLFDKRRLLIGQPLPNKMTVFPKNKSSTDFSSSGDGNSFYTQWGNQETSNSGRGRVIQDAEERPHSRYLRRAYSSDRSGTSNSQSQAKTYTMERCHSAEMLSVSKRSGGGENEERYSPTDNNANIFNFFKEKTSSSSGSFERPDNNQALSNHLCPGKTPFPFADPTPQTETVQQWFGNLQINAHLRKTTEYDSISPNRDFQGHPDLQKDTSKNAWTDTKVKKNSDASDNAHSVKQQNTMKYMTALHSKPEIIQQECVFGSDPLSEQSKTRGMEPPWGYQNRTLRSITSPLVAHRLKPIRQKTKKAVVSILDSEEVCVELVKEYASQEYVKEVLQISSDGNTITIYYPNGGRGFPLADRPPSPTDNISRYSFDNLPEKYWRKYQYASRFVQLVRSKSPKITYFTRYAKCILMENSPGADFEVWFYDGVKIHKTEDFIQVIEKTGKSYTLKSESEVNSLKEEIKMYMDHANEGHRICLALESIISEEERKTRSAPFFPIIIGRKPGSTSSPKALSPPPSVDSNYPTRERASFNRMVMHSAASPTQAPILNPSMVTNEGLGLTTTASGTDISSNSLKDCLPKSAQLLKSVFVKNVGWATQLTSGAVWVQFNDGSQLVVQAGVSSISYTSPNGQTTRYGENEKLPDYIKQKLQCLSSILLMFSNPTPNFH

[4] = target: Histamine H2 receptor (Homo sapiens) (UniProt P25021); conditions: Compound concentration 10.0 uM
[5] = target: T3, Myotonin-protein kinase (Homo sapiens) (UniProt Q09013); assay: DMPK1 SGC Tm panel (DSF); conditions: for ΔTm: Compound concentration 10.0 uM
T3 sequence (whole entry): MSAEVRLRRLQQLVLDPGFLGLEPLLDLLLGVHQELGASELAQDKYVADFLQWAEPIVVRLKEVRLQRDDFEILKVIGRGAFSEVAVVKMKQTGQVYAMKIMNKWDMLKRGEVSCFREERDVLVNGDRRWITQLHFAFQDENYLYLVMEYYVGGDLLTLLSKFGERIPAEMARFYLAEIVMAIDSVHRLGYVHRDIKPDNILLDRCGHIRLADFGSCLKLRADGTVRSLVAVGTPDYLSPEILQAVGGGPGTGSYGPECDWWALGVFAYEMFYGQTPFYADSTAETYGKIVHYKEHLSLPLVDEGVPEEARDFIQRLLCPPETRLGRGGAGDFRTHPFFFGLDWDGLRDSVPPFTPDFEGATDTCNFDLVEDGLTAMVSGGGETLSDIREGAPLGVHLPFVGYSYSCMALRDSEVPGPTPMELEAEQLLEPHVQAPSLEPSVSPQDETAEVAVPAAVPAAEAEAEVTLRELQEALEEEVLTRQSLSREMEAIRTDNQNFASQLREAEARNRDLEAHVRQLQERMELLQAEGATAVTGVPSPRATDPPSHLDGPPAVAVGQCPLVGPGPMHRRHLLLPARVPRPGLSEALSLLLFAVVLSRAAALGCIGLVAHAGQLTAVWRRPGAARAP

[6] = target: Ribosomal protein S6 kinase alpha-5 (Homo sapiens) (UniProt O75582); assay: RPS6KA5 SGC Tm panel (DSF); conditions: for ΔTm: Compound concentration 10.0 uM
Ribosomal protein S6 kinase alpha-5 (Homo sapiens), sequence (O75582 whole entry, looked up): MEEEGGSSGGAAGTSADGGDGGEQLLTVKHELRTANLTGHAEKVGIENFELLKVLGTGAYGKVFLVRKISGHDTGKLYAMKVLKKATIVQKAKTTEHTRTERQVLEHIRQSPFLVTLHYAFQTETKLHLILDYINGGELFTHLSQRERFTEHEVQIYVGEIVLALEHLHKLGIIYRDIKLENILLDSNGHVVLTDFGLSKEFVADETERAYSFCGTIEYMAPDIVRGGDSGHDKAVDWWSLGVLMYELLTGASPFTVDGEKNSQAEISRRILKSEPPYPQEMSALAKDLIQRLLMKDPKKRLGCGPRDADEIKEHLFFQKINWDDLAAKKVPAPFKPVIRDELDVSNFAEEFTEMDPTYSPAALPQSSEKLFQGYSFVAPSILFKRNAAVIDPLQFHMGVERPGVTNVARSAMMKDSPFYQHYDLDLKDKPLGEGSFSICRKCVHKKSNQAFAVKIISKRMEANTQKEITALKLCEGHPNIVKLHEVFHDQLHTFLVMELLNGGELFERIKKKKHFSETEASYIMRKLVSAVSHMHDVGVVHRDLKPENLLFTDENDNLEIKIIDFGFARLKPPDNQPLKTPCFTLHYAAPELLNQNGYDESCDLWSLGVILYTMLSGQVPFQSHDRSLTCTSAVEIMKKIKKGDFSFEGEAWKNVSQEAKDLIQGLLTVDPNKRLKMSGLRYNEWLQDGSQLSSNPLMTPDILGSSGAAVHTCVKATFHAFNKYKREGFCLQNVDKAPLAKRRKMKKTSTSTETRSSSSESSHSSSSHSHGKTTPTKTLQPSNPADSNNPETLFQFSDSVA

Histamine H2 receptor (Homo sapiens), sequence (P25021 whole entry): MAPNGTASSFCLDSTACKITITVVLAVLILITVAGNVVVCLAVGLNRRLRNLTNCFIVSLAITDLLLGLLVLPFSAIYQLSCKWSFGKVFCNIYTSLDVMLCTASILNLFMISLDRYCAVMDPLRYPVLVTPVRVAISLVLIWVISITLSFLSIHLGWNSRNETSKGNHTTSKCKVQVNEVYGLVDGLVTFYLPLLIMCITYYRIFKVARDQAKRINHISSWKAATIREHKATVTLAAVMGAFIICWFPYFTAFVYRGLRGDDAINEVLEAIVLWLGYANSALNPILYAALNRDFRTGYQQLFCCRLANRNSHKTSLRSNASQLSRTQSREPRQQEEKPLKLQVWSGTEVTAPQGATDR
Tyrosine-protein kinase Fes/Fps (Homo sapiens), sequence (P07332 whole entry): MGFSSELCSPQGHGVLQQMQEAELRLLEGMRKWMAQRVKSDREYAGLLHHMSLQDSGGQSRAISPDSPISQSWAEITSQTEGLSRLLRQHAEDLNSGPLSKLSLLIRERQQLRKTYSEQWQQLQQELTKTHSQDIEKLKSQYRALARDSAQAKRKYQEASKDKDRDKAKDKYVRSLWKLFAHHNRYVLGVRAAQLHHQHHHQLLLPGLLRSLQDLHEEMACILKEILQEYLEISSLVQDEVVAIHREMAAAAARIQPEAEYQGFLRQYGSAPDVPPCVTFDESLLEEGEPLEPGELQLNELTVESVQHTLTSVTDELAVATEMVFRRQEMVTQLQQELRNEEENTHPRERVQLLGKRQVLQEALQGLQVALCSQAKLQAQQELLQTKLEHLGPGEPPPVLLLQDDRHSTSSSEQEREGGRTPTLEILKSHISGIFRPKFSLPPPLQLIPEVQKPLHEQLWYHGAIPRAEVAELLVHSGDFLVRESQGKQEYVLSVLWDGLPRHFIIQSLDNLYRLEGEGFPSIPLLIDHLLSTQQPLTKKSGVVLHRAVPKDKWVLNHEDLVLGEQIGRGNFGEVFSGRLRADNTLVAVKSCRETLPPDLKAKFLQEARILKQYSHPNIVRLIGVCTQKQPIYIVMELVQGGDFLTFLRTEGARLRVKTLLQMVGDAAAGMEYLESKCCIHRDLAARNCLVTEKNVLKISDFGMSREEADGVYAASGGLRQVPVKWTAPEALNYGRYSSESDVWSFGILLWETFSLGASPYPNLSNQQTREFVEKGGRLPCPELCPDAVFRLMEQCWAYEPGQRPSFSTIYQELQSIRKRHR

| Structure (SMILES) | delta Tm Staurosporine positive control [1] | ΔTm [1] | delta Tm Staurosporine positive control [2] | ΔTm [2] | delta Tm Staurosporine positive control [3] | ΔTm [3] | inhibition [4] | delta Tm Staurosporine positive control [5] | ΔTm [5] | delta Tm Staurosporine positive control [6] | ΔTm [6] |
| --- | --- | --- | --- | --- | --- | --- | --- | --- | --- | --- | --- |
| CCC[C@@H]1CNCc2c1[nH]c(=O)c(C#N)c2N1CCC2(CC1)CC2 | 9.22 | -0.389 | 0.0394 | -0.244 | 19.7 | -0.315 | 25.3% | 9.38 | -0.138 | 13.8 | -0.505 |
| CCC[C@H]1CNCc2c1[nH]c(=O)c(C#N)c2N1CCC2(CC1)CC2 | 9.22 | -0.11 | 0.0394 | -0.211 | 19.7 | -0.34 | 32.7% | 9.38 | -0.0275 | 13.8 | -0.275 |
